Values quoted from earlier work, collected in patent EP2708126A1, “Insecticidal aerosol” (priority 2012, dated 2014).

Settings: rats, through ingestion

In the case of `CC1(C)C(C=C(Cl)Cl)C1C(=O)OC(C#N)c1cccc(Oc2ccccc2)c1` (racemic) [Alpha cypermethrin], the LD50 is given as 79 mg/kg.
For `CNC(=O)Oc1cccc2c1OC(C)(C)O2` [Bendiocarb, 2,2-dimethyl-1,3-benzodioxol-4-yl-N-methylcarbamate], the LD50 is listed as 55 mg/kg.
In the case of `CC1(C)C(C=C(Cl)Cl)C1C(=O)OCc1cccc(Oc2ccccc2)c1` (stereo not drawn) [Permethrin, 3-phenoxybenzyl-3-(2,2-dichlorovinyl)-2,2-dimethylcyclopropane-carboxylate], the LD50 is given as 383 mg/kg.
